Measured values taken from patent US7070965B1, “Small molecule anticancer compounds and related production process” (priority 1998, dated 2006).
“Also recorded” adds a separate entry of the source.

How the values were obtained:
normal human PBLs = assay: In situ cell death detection, POD; type: cell-based; conditions: 60 μg/ml, 8 hours
Excerpt: (§1) In Situ Cell Death Detection Kit, POD (Mannheim Boehringer GmbH) was used to detect the individual apoptotic cells. Cleavage of genomic DNA during apoptosis may yield double-stranded, low molecular weight DNA fragments as well as single strand breaks in high molecular weight DNA. Those DNA strand breaks can be identified by labeling free 3′-OH termini with modified nucleotides in an enzymatic reaction. In this kit terminal deoxynucleotidyl transferase (TdT) is used to label free 3′-OH ends in genomic DNA with fluorescein-dUTP. The incorporated fluorescein is visualized under fluorescence microscope directly. The incorporated fluorescein can also bind to anti-fluorescein antibody POD and be detected by substrate reaction. Stained cells can be analyzed under light microscope.
(§2) Four human tumor cell lines, K-562 human leukemia, SNU-1 human gastric carcinoma cell lines, MCF-7 human breast adenocarcinoma and H1688 human small cell lung carcinoma cell lines, as well as Human PBLs were treated with iso-C15 (60 μg/ml).
(§3) H1688, K-562 and DU145 human cancer cells and normal human PBLs were added with POD and incubated 30 min at 37° C., washed three times with PBS, then reacted with substrate AEC and incubated for 10 min at room temperature. The cells were analyzed under light microscope. […] It is evidenced that iso-C15 induces apoptosis of cancer cells but not normal human cells.

H1688 cancer cells = assay: In situ cell death detection, POD; type: cell-based, human; conditions: 60 μg/ml, 8 hours
Excerpt: as §1, §2, §3

K-562 leukemia cells = assay: In situ cell death detection, POD; type: cell-based, human; conditions: 60 μg/ml, 2 and 4 hours
Excerpt: as §1, §2, §3

[1] = tested on: DU-145 human prostate carcinoma cell lines; assay: Apoptosis morphology, H&E, light microscope; type: cell-based; conditions: 60 μg/ml, 8 hours
Procedure: Human cancer cell lines DU-145 (prostate cancer), K562 (leukemia), HCT116 (colon cancer), H1688 (lung cancer), SUN423 (hepatocarcinoma), MCF7 (breast cancer), CRL-1687 (pancreatic cancer), and SUN-1 (gastric cancer) were obtained from American Type Culture Collection (ATCC). 30 ml blood was collected from a health person and normal peripheral mononuclear cells were separated by Ficoll separation solution (Sigma). All cells were maintained in RPMI 1640, DMEM, or McCoy medium supplemented with 10% FCS, […] streptomycin and 100 u/ml penicillin. Normal human peripheral mononuclear cells, K562 and SUN-1 were suspended cells. After spinning at 1,500 RPM for 5 min, supernatants were discharged and cells were resuspended and expended in fresh medium. The other tumor cell lines were adherent cells and were dispersed with 0.05% trypsin/0.01% EDTA (Irvine Scientific, CA) for expansion. Cells were seeded in T75 flasks at 2×10^6 cells/flask in culture medium supplemented with 10% fetal bovine serum and incubated overnight at 37° C. with 5% CO2. The adherent cells attached to the plate were striped with disposable cell scrapers (Fisher Scientific) after treated either with 1% iso-C15, anteiso-C15 or control solution for 1, 2, 4, 8 and 24 hours and then combined with respective float cells. […]

[2] = Human clinical studies on the safety of iso-C15; type: in vivo
Procedure: Chemically synthesized iso-C15 of 99.8% purity were prepared in 0.20 g capsules. Six healthy adult volunteers (4 male, 2 female) of average age 35.6 were divided into three groups, and orally received iso-C15 capsules for thirty days. Low dose group: one case, 0.6 g daily; middle dose group: two cases, 1.2 g daily; high dose group: three cases, 1.8 g daily. The examinations were carried out before, during and after experiment, including physical examinations, blood and urine routine examinations, function of heart, liver and kidney, X-ray radioscopy of lung and subjective symptom.

[3] = tested on: K562 human leukemia cells; assay: Western blot analysis of caspase target proteins Lamin B and RB; type: cell-based; conditions: 1% iso-C15 (60 μg/ml)
Procedure: (§4) For Western blot assay, each cell pellet collected from 1% iso-C15 or control treated cultures was lysed in 150 μl lysis buffer with 0.5% NP-40, 0.5% deoxycholic acid and 1 mM PMSF. The cell lysates were mixed with equal volume 2× Laemmli buffer and boiled for 5 min before loaded into gel wells. Proteins were resolved in an 8% SDS-PAGE gel and transferred to nitrocellulose filter membrane. The filters were blocked with PBS-T (PBS with 0.1% Tween 20) containing 5% nonfat dry milk (Bio-Rad, Richmond, Calif.) for 1 hr and then incubated for 1 hr with proper dilution of one primary antibody in PBS-T containing 2% nonfat dry milk. The filters then were washed in PBS-T 5 min for 6 times and incubated with a 1:8000 dilution of HRP secondary antibody in PBS-T with 2% nonfat dry milk for 1 hr. After 6 washes in PBS-T, immune complexes were visualized on film using the ECL nonradioactive detection system (Amersham, Arlington Heights, Ill.). After detected with one primary antibody, the filter was striped with 0.1 mM Tris pH 7.5 and 0.05 mM β-metacapenanol at 50° C. for 30 min. The filters were washed in 300 ml PBS-T buffer for 10 min twice before blocking with PBS-T with 5% nonfat dry milk. The membranes were then reprobed with monoclonal mouse anti-human β-actin to determine the equal loading of protein for each well.
(§5) The cleavages of Lamin B, a caspase target protein, in apoptotic SNU-423 human hepatocellular carcinoma cells and K562 human leukemia cells were shown in FIGS. 14 and 15, respectively. The cells were treated with 1% control solution and 1% iso-C15 for the length of time indicated. Cell lysates were separated by SDS-PAGE. Lamin B was detected by immunoblotting with a monoclonal antibody. […] The Western blot analysis of RB protein in SNU-423 and K562 cells were shown in FIGS. 16 and 17, respectively.

[4] = tested on: SNU-423 human hepatocellular carcinoma cells; assay: as above; type: cell-based; conditions: 1% iso-C15 (60 μg/ml)
Procedure: as §4, §5

[5] = 0.6–1.8 g daily oral, thirty days
[6] = after test, 0.6–1.8 g daily oral, thirty days

CC(C)CCCCCCCCCCCC(=O)O [iso-C15, 13-methyltetradecanoic acid]
apoptotic cells stained, POD (normal human PBLs): few stained apoptotic cells were seen | apoptotic cells stained, POD (H1688 cancer cells): apoptotic H1688 cancer cells (stained red) were found | apoptotic cells stained, POD (K-562 leukemia cells): some cells started apoptosis (stained red) 2 hours after treatment | morphological changes indicative of apoptosis [1]: membrane blebs were noted | toxicity / side effects in volunteers ([2]; 0.6 g–1.8 g daily for one month, oral): without any side effects; also recorded: without any toxicity effects | heart and lung, electrocardiogram (EKG) and X-ray radioscopy [2, 5]: No abnormality | urine routine [2, 5]: no abnormality | ALT [2, 6]: 15.00 ± 10.33 μ/L | BUN [2, 6]: 6.47 ± 1.72 mmol/L | GRAN [2, 6]: 3.80 ± 0.89 × 10^9 | HB [2, 6]: 128 ± 16.9 g/L | PLT [2, 6]: 232.0 ± 52.1 × 10^9/L | RBC [2, 6]: 4.62 ± 0.69 × 10^12/L | WBC [2, 6]: 7.50 ± 0.71 × 10^9/L | ALT ([2]; before test, X ± SD, 6 cases): 15.17 ± 8.70 μ/L | BUN ([2]; before test, X ± SD, 6 cases): 6.69 ± 2.14 mmol/L | GRAN ([2]; before test, X ± SD, 6 cases): 3.20 ± 0.59 × 10^9 | HB ([2]; before test, X ± SD, 6 cases): 122 ± 10.4 g/L | PLT ([2]; before test, X ± SD, 6 cases): 203.0 ± 33.3 × 10^9/L | RBC ([2]; before test, X ± SD, 6 cases): 4.64 ± 0.40 × 10^12/L | WBC ([2]; before test, X ± SD, 6 cases): 5.80 ± 0.95 × 10^9/L | Lamin B cleavage [3]: cleaved 45 kDa products | RB hypophosphorylation and cleavage [3]: induced the change of hyperphosphorylated RB (pRB120/hyper) to hypophosphorylated form (pRB115/hypo) | Lamin B cleavage [4]: cleaved 45 kDa and 32 kDa products | RB hypophosphorylation and cleavage [4]: induced the change of hyperphosphorylated RB (pRB120/hyper) to hypophosphorylated form (pRB115/hypo)
